In patent US20230117034A1, “PYRAZOLOTRIAZINES” (Bayer Aktiengesellschaft, priority 2019, published 2023):

Columns and labels:
CDK12/CycK = CDK12/CycK (Homo sapiens, UniProt Q9NYV4); assay: CDK12/CycK high ATP kinase assay (TR-FRET, 2 mM ATP); format: biochemical; settings: 2 mM ATP (high ATP); median; read-out: CDK12/CyclinK, 2 mM ATP (high ATP), IC50-[mol/l] (median)
Outline: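 Read-out is TR-FRET (Eu-anti-rabbit IgG, anti-phospho-c-Myc Ser62 antibody, streptavidin-XL665) after EDTA stop. Reaction ran 60 min at 22 °C using 1 µM biotin-peptide and high ATP (2 mM) with roughly 0.75 nM recombinant CDK12/CycK, after 15 min compound pre-binding; normalised emission ratios yield IC50.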

CDK9/CycT1 = molecular target: T1, CDK9/CycT1 (Homo sapiens, UniProt P50750); assay: CDK9/CycT1 high ATP kinase assay (TR-FRET, 2 mM ATP); format: biochemical; settings: 2 mM ATP (high ATP); median; read-out: CDK9/CyclinT1, 2 mM ATP (high ATP), IC50 (median)
T1 construct: Recombinant full-length His-tagged human CDK9 and CycT1; purchased Life Technologies PV4131; host or cells: insect cells
T1 sequence (P50750 whole entry): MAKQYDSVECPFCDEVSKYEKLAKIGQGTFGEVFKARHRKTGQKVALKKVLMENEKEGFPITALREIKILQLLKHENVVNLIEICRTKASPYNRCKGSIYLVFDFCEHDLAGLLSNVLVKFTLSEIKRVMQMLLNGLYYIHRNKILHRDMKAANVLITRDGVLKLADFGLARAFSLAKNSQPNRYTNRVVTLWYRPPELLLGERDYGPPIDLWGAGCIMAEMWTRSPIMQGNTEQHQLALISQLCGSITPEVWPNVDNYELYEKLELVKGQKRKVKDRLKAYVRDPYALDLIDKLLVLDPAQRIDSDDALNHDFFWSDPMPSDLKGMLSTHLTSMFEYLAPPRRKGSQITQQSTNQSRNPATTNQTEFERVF
T1 sequence (O60563 whole entry partner): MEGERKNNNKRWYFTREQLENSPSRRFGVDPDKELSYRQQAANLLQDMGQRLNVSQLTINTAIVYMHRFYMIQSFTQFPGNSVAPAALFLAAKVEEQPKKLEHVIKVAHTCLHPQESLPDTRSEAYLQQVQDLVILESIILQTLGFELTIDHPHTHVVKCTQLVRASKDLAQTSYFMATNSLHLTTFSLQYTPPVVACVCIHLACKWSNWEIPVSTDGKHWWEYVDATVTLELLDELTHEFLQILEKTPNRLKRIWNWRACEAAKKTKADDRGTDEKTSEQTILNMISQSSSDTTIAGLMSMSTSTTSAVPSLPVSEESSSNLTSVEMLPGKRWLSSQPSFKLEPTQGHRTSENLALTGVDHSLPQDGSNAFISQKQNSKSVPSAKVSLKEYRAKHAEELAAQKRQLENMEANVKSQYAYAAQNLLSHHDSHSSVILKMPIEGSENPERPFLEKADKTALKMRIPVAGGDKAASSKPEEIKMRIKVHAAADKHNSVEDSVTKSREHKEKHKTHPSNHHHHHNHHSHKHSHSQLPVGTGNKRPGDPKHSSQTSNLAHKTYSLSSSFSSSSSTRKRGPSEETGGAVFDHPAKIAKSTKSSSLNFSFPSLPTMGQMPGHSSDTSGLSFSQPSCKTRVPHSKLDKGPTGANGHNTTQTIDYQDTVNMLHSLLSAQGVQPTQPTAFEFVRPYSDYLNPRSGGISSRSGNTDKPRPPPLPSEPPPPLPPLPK
Outline: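 Full-length His-tagged human CDK9/CycT1 (insect cell, ~0.5 μg/mL) preincubated 15 min at 22 °C with compound in Tris pH 8.0, MgCl2, DTT buffer before reaction with biotinylated peptide substrate at high ATP (2 mM).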

Sequence of CDK12/CycK (Q9NYV4 with tags, fused parts or gaps): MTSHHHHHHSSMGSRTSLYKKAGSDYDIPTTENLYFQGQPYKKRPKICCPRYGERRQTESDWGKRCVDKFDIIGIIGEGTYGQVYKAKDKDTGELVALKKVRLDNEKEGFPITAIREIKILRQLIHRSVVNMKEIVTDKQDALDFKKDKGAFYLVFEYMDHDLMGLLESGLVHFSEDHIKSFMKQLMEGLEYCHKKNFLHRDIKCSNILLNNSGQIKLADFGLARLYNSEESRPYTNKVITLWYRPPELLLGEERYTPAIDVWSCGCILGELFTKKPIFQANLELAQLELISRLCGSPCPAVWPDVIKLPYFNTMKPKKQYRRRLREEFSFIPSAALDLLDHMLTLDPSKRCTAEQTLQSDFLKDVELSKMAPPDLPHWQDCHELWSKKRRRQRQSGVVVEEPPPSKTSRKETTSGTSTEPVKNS
Sequence of CDK12/CycK (O75909 1-300 partner limits assumed): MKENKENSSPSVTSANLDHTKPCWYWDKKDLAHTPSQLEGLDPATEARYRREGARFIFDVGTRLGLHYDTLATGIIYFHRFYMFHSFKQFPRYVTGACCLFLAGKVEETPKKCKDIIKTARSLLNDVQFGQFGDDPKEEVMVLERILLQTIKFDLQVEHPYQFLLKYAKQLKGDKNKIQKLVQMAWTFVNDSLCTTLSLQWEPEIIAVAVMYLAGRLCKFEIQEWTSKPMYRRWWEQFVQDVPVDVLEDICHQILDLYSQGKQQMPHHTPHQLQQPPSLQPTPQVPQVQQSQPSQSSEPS

| IC50 (CDK12/CycK) [µM] | IC50 (CDK9/CycT1) [µM] | Compound |
| --- | --- | --- |
| 8.31 | > 20 | CN1CCN(c2nc(NCc3nc4cc(Cl)ccc4[nH]3)n3ncc(C(F)(F)F)c3n2)CC1 [Example 298, N-[(5-chloro-1H-benzimidazol-2-yl)methyl]-2-(4-methylpiperazin-1-yl)-8-(trifluoromethyl)pyrazolo[1,5-a][1,3,5]triazin-4-amine] |
| 0.0973 | > 20 | FC(F)(F)c1cnn2c(NCc3nc4cc(Cl)ccc4[nH]3)nc(N3CCOCC3)nc12 [Example 275, N-[(5-chloro-1H-benzimidazol-2-yl)methyl]-2-(morpholin-4-yl)-8-(trifluoromethyl)pyrazolo[1,5-a][1,3,5]triazin-4-amine] |
| 10.7 | > 20 | Brc1cnn2c(NCc3nc4ccccc4[nH]3)nc(N3CCC4(CCN4)CC3)nc12 [Example 291, N-[(1H-benzimidazol-2-yl)methyl]-8-bromo-2-(1,7-diazaspiro[3.5]nonan-7-yl)pyrazolo[1,5-a][1,3,5]triazin-4-amine] |
| 14.5 | > 20 | CN1CCN(c2nc(NCc3nc4ccccc4[nH]3)n3ncc(Br)c3n2)C(CO)C1 (single isomer, unassigned) [Example 280, [(2R or S)-1-(4-{[(1H-benzimidazol-2-yl)methyl]amino}-8-bromopyrazolo[1,5-a][1,3,5]triazin-2-yl)-4-methylpiperazin-2-yl]methanol] |
| 9.2 | > 20 | C[C@@H]1CN(c2nc(NCc3nc4ccccc4[nH]3)n3ncc(C4CC4)c3n2)C[C@H](C)N1 [Example 248, N-[(1H-benzimidazol-2-yl)methyl]-8-cyclopropyl-2-[(3R,5S)-3,5-dimethylpiperazin-1-yl]pyrazolo[1,5-a][1,3,5]triazin-4-amine] |
| > 16.9 | > 20 | C[C@@]1(O)CCN(c2nc(NCc3nc4ccccc4[nH]3)n3ncc(Br)c3n2)C1 (single isomer, unassigned) [Example 281, (3R or S)-1-(4-{[(1H-benzimidazol-2-yl)methyl]amino}-8-bromopyrazolo[1,5-a][1,3,5]triazin-2-yl)-3-methylpyrrolidin-3-ol] |
| 6.4 | > 20 | Fc1ccc2[nH]c(CNc3nc(N4CCOCC4)nc4c(CC(F)(F)F)cnn34)nc2c1 [Example 308, N-[(5-fluoro-1H-benzimidazol-2-yl)methyl]-2-(morpholin-4-yl)-8-(2,2,2-trifluoroethyl)pyrazolo[1,5-a][1,3,5]triazin-4-amine] |
| > 20 | > 20 | c1ccc2[nH]c(CNc3nc(N4C[C@@H]5C[C@H]4CO5)nc4c(C5CC5)cnn34)nc2c1 [Example 254, N-[(1H-benzimidazol-2-yl)methyl]-8-cyclopropyl-2-[(1S,4S)-2-oxa-5-azabicyclo[2.2.1]heptan-5-yl]pyrazolo[1,5-a][1,3,5]triazin-4-amine] |
| 8.61 | > 20 | Brc1cnn2c(NCc3nc4ccccc4[nH]3)nc(N3C[C@H]4C[C@@H]3CN4)nc12 [Example 269, N-[(1H-benzimidazol-2-yl)methyl]-8-bromo-2-[(1R,4R)-2,5-diazabicyclo[2.2.1]heptan-2-yl]pyrazolo[1,5-a][1,3,5]triazin-4-amine] |
| 5.46 | > 20 | Brc1cnn2c(NCc3nc4ccccc4[nH]3)nc(NCC3CC3)nc12 [Example 284, N^4-[(1H-benzimidazol-2-yl)methyl]-8-bromo-N^2-(cyclopropylmethyl)pyrazolo[1,5-a][1,3,5]triazine-2,4-diamine] |
| 10.2 | > 20 | Cc1cc2nc(CNc3nc(N4CCN(C)CC4)nc4c(C5CC5)cnn34)[nH]c2cc1C [Example 312, 8-cyclopropyl-N-[(5,6-dimethyl-1H-benzimidazol-2-yl)methyl]-2-(4-methylpiperazin-1-yl)pyrazolo[1,5-a][1,3,5]triazin-4-amine] |
| 5.91 | > 20 | CN1CCN(c2nc(NCc3nc4c(F)cccc4[nH]3)n3ncc(C(F)(F)F)c3n2)CC1 [Example 293, N-[(4-fluoro-1H-benzimidazol-2-yl)methyl]-2-(4-methylpiperazin-1-yl)-8-(trifluoromethyl)pyrazolo[1,5-a][1,3,5]triazin-4-amine] |
| > 19.7 | > 20 | Fc1ccc2[nH]c(CNc3nc(N4CCOCC4)nc4c([C@@H]5CC5(F)F)cnn34)nc2c1 (single isomer, unassigned) [Example 315, 8-[(1R or S)-2,2-difluorocyclopropyl]-N-[(5-fluoro-1H-benzimidazol-2-yl)methyl]-2-(morpholin-4-yl)pyrazolo[1,5-a][1,3,5]triazin-4-amine] |
| 10.7 | > 20 | CN(CC1CC1)c1nc(NCc2nc3ccccc3[nH]2)n2ncc(Br)c2n1 [Example 287, N^4-[(1H-benzimidazol-2-yl)methyl]-8-bromo-N^2-(cyclopropylmethyl)-N^2-methylpyrazolo[1,5-a][1,3,5]triazine-2,4-diamine] |
| > 20 | > 20 | c1ccc2[nH]c(CNc3nc(N4CCOCC4)nc4c(C5CCCC5)cnn34)nc2c1 [Example 244, N-[(1H-benzimidazol-2-yl)methyl]-8-cyclopentyl-2-(morpholin-4-yl)pyrazolo[1,5-a][1,3,5]triazin-4-amine] |
| 13.7 | > 20 | Brc1cnn2c(NCc3nc4ccccc4[nH]3)nc(N3C[C@@H]4C[C@H]3CN4)nc12 [Example 270, N-[(1H-benzimidazol-2-yl)methyl]-8-bromo-2-[(1S,4S)-2,5-diazabicyclo[2.2.1]heptan-2-yl]pyrazolo[1,5-a][1,3,5]triazin-4-amine] |
| > 20 | > 20 | CN1CCN(c2nc(NCc3nc4cc(F)c(Cl)cc4[nH]3)n3ncc(C4CC4)c3n2)CC1 [Example 309, N-[(6-chloro-5-fluoro-1H-benzimidazol-2-yl)methyl]-8-cyclopropyl-2-(4-methylpiperazin-1-yl)pyrazolo[1,5-a][1,3,5]triazin-4-amine] |
| 4.79 | > 20 | COc1cccc2[nH]c(CNc3nc(N4CCOCC4)nc4c(CC(F)(F)F)cnn34)nc12 [Example 277, N-[(4-methoxy-1H-benzimidazol-2-yl)methyl]-2-(morpholin-4-yl)-8-(2,2,2-trifluoroethyl)pyrazolo[1,5-a][1,3,5]triazin-4-amine] |
| > 20 | > 20 | CN[C@@H]1CCN(c2nc(NCc3nc4ccccc4[nH]3)n3ncc(Br)c3n2)C1 [Example 253, N-[(1H-benzimidazol-2-yl)methyl]-8-bromo-2-[(3R)-3-(methylamino)pyrrolidin-1-yl]pyrazolo[1,5-a][1,3,5]triazin-4-amine] |
| 1.85 | > 20 | CN(CC(C)(C)O)c1nc(NCc2nc3cc(Cl)c(Cl)cc3[nH]2)n2ncc(C3CC3)c2n1 [Example 306, 1-[(8-cyclopropyl-4-{[(5,6-dichloro-1H-benzimidazol-2-yl)methyl]amino}pyrazolo[1,5-a][1,3,5]triazin-2-yl)(methyl)amino]-2-methylpropan-2-ol] |
| 4 | > 18.4 | Brc1cnn2c(NCc3nc4ccncc4[nH]3)nc(N3CCOCC3)nc12 [Example 22, 8-bromo-N-[(3H-imidazo[4,5-c]pyridin-2-yl)methyl]-2-(morpholin-4-yl)pyrazolo[1,5-a][1,3,5]triazin-4-amine] |
| 14.7 | > 20 | c1ccc2[nH]c(CNc3nc(N4CCNCC4)nc4c(C5CC5)cnn34)nc2c1 [Example 247, N-[(1H-benzimidazol-2-yl)methyl]-8-cyclopropyl-2-(piperazin-1-yl)pyrazolo[1,5-a][1,3,5]triazin-4-amine] |
| 2.44 | > 20 | Fc1ccc2[nH]c(CNc3nc(N4CCOCC4)nc4c(C5CC5(F)F)cnn34)nc2c1F (stereo not shown) [Example 278, N-[(4,5-difluoro-1H-benzimidazol-2-yl)methyl]-8-(2,2-difluorocyclopropyl)-2-(morpholin-4-yl)pyrazolo[1,5-a][1,3,5]triazin-4-amine] |
| 3.48 | > 20 | NC1(C(F)(F)F)CCN(c2nc(NCc3nc4ccccc4[nH]3)n3ncc(Br)c3n2)C1 (stereo not shown) [Example 266, 2-[3-amino-3-(trifluoromethyl)pyrrolidin-1-yl]-N-(1H-benzimidazol-2-ylmethyl)-8-bromo-pyrazolo[1,5-a][1,3,5]triazin-4-amine] |

| Compound | IC50 (CDK12/CycK) [µM] | IC50 (CDK9/CycT1) [µM] |
| --- | --- | --- |
| Fc1ccc2[nH]c(CNc3nc(N4CC5CCC(C4)N5)nc4c(C(F)(F)F)cnn34)nc2c1F [Example 310, 2-(3,8-diazabicyclo[3.2.1]octan-3-yl)-N-[(4,5-difluoro-1H-benzimidazol-2-yl)methyl]-8-(trifluoromethyl)pyrazolo[1,5-a][1,3,5]triazin-4-amine] | 1.29 | 8.49 |
| Fc1ccc2[nH]c(CNc3nc(N4C[C@H]5CC[C@@H](C4)N5)nc4c(C5CC5)cnn34)nc2c1F [Example 294, 8-cyclopropyl-2-[(1R,5S)-3,8-diazabicyclo[3.2.1]octan-3-yl]-N-[(4,5-difluoro-1H-benzimidazol-2-yl)methyl]pyrazolo[1,5-a][1,3,5]triazin-4-amine] | 1.86 | 15.3 |
